Laboratory results as given in patent US11795169B2, “MAP4K4 inhibitors” (IMPERIAL COLLEGE INNOVATIONS LIMITED, priority 2017, dated 2023).
Like-named read-outs stand apart in the source and are kept apart here.

Legend:
[1] = molecular target: human MAP4K4 kinase domain (Homo sapiens (Human), UniProt O95819); test: MAP4K4 kinase activity, CisBio HTRF Transcreener ADP assay; format: biochemical
Source text: (§1) Compounds of the present invention were screened for their inhibitory activity against MAP4K4, versus selected off-target hits found with early members of this chemical series. MAP4K4 kinase activity was monitored using the CisBio HTRF Transcreener ADP assay, acompetitive immunoassay with a reproducible Z′>0.6. In the detection step, endogenous ADP and d2-labeled ADP compete for binding an anti-ADP monoclonal antibody labelled with Eu^3+ cryptate. A ratiometric fluorescent read-out is used at 665 and 620 nm. […] Assays were run in Greiner low volume plates with a final reaction volume of 10 μl. The MAP4K4 inhibition data are provided in Table 33 below for selected compounds of the present invention. The data has been categorised based on the IC50 value of the compound as “A”, “B” or “C”.

MINK1/MAP4K6 = MINK1/MAP4K6 (Homo sapiens (Human), UniProt Q8N4C8); test: Kinase selectivity panel: MINK1/MAP4K6; format: biochemical; details: read-out: pIC50 MINK1/MAP4K6 (converted)
MINK1/MAP4K6, sequence (Q8N4C8 whole entry): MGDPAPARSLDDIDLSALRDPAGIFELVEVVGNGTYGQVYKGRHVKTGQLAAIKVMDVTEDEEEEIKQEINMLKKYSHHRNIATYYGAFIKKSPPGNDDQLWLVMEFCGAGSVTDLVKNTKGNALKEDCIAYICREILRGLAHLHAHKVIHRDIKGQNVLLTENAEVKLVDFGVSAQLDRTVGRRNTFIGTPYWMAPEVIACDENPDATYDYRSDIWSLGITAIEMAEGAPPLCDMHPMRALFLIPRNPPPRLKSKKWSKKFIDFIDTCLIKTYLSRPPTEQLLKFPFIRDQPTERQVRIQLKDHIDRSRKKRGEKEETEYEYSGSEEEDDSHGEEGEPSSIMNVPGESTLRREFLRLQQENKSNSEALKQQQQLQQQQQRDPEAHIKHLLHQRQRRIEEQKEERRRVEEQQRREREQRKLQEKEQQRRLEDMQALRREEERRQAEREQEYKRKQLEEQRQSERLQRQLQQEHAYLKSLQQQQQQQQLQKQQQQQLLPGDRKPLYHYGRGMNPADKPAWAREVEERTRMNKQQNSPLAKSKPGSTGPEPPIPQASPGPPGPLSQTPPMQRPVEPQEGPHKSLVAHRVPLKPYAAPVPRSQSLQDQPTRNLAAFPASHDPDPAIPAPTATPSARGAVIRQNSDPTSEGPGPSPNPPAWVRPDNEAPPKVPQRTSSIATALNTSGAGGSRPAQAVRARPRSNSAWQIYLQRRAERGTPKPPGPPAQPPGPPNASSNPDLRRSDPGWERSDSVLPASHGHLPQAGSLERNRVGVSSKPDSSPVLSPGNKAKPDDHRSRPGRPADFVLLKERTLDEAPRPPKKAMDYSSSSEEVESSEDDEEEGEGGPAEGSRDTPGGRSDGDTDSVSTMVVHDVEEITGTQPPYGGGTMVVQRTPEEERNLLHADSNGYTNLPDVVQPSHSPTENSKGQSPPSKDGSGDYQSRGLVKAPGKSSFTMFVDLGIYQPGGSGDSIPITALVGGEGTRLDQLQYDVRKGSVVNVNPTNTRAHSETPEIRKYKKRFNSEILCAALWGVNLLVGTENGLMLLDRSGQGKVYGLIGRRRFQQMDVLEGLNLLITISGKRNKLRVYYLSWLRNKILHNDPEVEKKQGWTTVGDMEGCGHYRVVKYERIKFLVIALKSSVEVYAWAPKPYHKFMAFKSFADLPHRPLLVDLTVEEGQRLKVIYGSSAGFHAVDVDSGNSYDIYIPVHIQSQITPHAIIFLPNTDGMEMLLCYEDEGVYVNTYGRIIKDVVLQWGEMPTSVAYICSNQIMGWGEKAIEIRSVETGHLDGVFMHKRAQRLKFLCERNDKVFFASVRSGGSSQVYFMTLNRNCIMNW
Source text: as §1
(§2) The data in Table 34 also provides the fold selectivity of the two compounds in favour of MAP4K4 over the tested kinase. The fold selectivity is indicated in parenthesis.

TNIK/MAP4K7 = TNIK/MAP4K7 (Homo sapiens (Human), UniProt Q9UKE5); test: Kinase selectivity panel: TNIK/MAP4K7; format: biochemical; details: read-out: pIC50 TNIK/MAP4K7 (converted)
Source text: as §1, §2

GCK/MAP4K2 = GCK/MAP4K2 (Homo sapiens (Human), UniProt Q12851); test: Kinase selectivity panel: GCK/MAP4K2; format: biochemical; details: for IC50: read-out: pIC50 GCK/MAP4K2 (converted)
GCK/MAP4K2, sequence (Q12851 whole entry): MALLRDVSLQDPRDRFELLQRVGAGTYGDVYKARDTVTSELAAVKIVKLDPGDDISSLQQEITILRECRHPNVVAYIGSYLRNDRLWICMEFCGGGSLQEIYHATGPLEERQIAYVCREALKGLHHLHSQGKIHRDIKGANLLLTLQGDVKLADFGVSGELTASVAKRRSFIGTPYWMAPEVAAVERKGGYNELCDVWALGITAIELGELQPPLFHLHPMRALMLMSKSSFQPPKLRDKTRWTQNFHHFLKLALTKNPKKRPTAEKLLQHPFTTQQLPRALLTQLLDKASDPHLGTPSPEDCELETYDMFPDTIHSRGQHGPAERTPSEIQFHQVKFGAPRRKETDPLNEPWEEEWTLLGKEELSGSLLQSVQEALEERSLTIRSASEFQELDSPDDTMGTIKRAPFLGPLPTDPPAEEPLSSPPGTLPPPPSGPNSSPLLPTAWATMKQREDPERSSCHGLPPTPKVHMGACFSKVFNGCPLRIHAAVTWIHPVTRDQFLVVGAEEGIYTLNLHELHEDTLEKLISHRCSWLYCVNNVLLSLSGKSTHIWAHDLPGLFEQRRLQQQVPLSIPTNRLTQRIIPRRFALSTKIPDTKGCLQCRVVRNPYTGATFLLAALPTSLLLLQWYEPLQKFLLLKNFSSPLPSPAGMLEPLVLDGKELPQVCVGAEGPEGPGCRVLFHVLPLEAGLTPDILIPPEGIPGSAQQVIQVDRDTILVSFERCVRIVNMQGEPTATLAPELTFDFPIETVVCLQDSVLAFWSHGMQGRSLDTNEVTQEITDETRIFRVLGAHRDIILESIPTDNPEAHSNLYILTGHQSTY
Source text: as §1, §2

GLK/MAP4K3 = GLK/MAP4K3 (Homo sapiens (Human), UniProt Q8IVH8); test: Kinase selectivity panel: GLK/MAP4K3; format: biochemical; details: for IC50: read-out: pIC50 GLK/MAP4K3 (converted)
GLK/MAP4K3, sequence (Q8IVH8 whole entry): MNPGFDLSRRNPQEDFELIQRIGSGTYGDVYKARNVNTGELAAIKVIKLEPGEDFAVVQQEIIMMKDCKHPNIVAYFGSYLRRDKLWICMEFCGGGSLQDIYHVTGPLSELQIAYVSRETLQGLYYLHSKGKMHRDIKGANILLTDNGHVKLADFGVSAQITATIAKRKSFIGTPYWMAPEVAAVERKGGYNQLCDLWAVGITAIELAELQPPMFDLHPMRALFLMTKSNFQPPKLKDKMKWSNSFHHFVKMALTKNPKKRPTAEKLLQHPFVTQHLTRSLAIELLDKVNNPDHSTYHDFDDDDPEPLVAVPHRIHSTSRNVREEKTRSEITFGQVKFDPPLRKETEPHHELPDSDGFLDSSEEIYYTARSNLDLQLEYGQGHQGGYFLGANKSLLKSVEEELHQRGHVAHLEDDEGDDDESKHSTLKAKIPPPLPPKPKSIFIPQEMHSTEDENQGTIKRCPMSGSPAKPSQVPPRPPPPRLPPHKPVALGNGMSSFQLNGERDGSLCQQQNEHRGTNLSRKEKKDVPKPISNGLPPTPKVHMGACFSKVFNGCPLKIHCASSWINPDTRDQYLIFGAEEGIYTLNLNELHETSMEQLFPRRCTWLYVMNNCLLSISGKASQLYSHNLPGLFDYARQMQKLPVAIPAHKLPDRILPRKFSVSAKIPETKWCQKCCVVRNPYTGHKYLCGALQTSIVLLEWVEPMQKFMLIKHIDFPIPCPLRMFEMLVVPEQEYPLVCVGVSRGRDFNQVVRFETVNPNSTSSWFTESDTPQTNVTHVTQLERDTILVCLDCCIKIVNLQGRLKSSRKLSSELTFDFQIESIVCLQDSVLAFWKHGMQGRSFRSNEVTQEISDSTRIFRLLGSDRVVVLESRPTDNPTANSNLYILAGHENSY
Source text: as §1, §2

KHS/MAP4K5 = KHS/MAP4K5 (Homo sapiens (Human), UniProt Q9Y4K4); test: Kinase selectivity panel: KHS/MAP4K5; format: biochemical; details: for IC50: read-out: pIC50 KHS/MAP4K5 (converted)
KHS/MAP4K5, sequence (Q9Y4K4 whole entry): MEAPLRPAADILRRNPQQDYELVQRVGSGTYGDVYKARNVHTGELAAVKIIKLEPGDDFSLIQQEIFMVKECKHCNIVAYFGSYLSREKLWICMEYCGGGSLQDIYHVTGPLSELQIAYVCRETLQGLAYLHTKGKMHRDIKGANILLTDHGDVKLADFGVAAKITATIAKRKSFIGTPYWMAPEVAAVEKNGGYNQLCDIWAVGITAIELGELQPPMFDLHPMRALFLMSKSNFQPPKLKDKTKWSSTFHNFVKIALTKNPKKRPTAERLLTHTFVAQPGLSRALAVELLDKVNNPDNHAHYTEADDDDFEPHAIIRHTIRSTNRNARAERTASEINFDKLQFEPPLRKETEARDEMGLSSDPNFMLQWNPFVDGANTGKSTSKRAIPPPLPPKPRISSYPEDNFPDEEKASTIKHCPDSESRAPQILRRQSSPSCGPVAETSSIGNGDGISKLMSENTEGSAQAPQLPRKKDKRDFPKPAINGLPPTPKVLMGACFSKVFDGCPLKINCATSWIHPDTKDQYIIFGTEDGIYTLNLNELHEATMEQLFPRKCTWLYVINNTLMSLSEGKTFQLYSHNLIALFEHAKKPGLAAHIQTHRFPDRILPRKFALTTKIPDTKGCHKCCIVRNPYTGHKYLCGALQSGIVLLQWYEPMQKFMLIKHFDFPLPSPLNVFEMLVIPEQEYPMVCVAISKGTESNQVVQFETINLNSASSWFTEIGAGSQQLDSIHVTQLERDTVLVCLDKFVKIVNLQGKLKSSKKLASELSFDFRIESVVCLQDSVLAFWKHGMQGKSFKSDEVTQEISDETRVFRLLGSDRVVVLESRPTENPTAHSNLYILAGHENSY
Source text: as §1, §2

ABL1 = ABL1 (Homo sapiens (Human), UniProt P00519); test: Kinase selectivity panel: ABL1; format: biochemical; details: for IC50: read-out: pIC50 ABL1 (converted)
Source text: as §1, §2

Aurora B = Aurora B (Homo sapiens (Human), UniProt Q96GD4); test: Kinase selectivity panel: Aurora B; format: biochemical; details: for IC50: read-out: pIC50 Aurora B (converted)
Aurora B, sequence (Q96GD4 whole entry): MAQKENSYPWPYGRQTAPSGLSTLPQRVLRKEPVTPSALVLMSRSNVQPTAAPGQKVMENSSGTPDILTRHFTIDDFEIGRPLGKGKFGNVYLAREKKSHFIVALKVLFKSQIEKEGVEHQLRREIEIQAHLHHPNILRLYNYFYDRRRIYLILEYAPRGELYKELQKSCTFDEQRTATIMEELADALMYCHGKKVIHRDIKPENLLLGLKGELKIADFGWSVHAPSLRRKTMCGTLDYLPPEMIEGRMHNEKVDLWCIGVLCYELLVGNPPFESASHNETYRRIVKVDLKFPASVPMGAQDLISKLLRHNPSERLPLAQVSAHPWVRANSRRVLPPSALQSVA
Source text: as §1, §2

FLT3 = FLT3 (Homo sapiens (Human), UniProt P36888); test: Kinase selectivity panel: FLT3; format: biochemical; details: for IC50: read-out: pIC50 FLT3 (converted)
Source text: as §1, §2

GSK3β = GSK3β (Homo sapiens (Human), UniProt P49841); test: Kinase selectivity panel: GSK3β; format: biochemical; details: for IC50: read-out: pIC50 GSK3β (converted)
GSK3β, sequence (P49841 whole entry, species assumed): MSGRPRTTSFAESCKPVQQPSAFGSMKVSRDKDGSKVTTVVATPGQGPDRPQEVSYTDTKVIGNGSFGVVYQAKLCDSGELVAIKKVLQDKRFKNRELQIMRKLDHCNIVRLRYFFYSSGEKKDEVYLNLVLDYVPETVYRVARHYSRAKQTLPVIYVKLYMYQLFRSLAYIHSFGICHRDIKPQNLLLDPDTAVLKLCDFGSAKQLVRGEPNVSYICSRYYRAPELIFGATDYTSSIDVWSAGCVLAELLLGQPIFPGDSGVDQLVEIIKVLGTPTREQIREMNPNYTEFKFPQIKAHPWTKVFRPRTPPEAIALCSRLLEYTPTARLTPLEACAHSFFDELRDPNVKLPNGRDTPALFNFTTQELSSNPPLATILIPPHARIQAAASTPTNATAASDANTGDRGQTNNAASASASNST
Source text: as §1, §2

MLK1/MAP3K9 = MLK1/MAP3K9 (Homo sapiens (Human), UniProt P80192); test: Kinase selectivity panel: MLK1/MAP3K9; format: biochemical; details: for IC50: read-out: pIC50 MLK1/MAP3K9 (converted)
Source text: as §1, §2

MLK3/MAP3K11 = MLK3/MAP3K11 (Homo sapiens (Human), UniProt Q16584); test: Kinase selectivity panel: MLK3/MAP3K11; format: biochemical; details: for IC50: read-out: pIC50 MLK3/MAP3K11 (converted)
Source text: as §1, §2

VEGFR = test: Kinase selectivity panel: VEGFR; format: biochemical
Procedure: (§3) In the detection step, endogenous ADP and d2-labeled ADP compete for binding an anti-ADP monoclonal antibody labelled with Eu^3+ cryptate. […] Assays were run in Greiner low volume plates with a final reaction volume of 10 μl.
(§4) The fold selectivity is indicated in parenthesis.

NUAK = test: Kinase selectivity panel: NUAK; format: biochemical
Procedure: as §3, §4

[2] = tested on: iCell cardiomyocytes (hiPSC-CMs); test: Human cardiac muscle cell death in iCell cardiomyocytes (DRAQ7 uptake); format: cell-based; details: 1.25 μM, lowest concentration tested
Source text: First, the expression of cardiomyocyte-specific markers and of MAP4K4 protein was validated (FIG. 5A, B). Two of three shRNAs directed against human MAP4K4 reduced expression >60%, with no extraneous effect on M/NK/MAP4K6 and TN/K/MAP4K7, the most closely related genes (FIG. 5C). Cell death was quantified by high-content analysis (FIG. 5D) as the loss of membrane integrity (DRAQ7 uptake) in successfully transduced (GFP^+) hiPSC-CMs (Myh6-RFP^+). Each of the two potent shRNAs conferred protection against H2O2: myocyte loss was reduced up to 50% (FIG. 5E).
To substantiate the hypothesis that pharmacological inhibition of MAP4K4 would confer resistance to cell death in human cardiomyocytes, cytoprotection was next assessed using hiPSC-CMs. […] Human cardiac muscle cell protection was substantiated in a second, independent line, CorV.4U cardiomyocytes, which are more highly enriched for ventricular myocytes.

[3] = tested on: CorV.4U cardiomyocytes (hiPSC-CMs); test: Protection of CorV.4U cardiomyocytes from H2O2 or menadione (luminescent cell viability assay, human cardiac troponin assay); format: cell-based; details: 10 μM; luminescent cell viability assay, human cardiac troponin assay
Source text: To substantiate the hypothesis that pharmacological inhibition of MAP4K4 would confer resistance to cell death in human cardiomyocytes, cytoprotection was next assessed using hiPSC-CMs.

[4] = mouse, in vivo
[5] = ATP at Km (10 μM), 0.5 nM kinase domain, 2 h, read-out: MAP4K4
[6] = read-out: pIC50 MAP4K4 (converted)

human MAP4K4 kinase domain, sequence (O95819 25-289): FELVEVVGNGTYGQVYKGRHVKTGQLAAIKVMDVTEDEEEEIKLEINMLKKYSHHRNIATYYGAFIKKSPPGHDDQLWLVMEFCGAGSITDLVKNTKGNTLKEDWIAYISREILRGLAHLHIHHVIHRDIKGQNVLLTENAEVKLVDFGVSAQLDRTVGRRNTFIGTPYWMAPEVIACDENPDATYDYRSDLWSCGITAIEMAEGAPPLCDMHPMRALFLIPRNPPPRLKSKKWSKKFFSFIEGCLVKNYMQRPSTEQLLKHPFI

## COc1cccc(-c2cn(-c3ccccc3)c3nc[nH]c(=O)c23)c1 [Ex-22]
[1]; [5]
  IC50: 100 to 1000 nM
[1]; [6]
  IC50: 158 nM
MINK1/MAP4K6
  IC50: 6.61 nM
TNIK/MAP4K7
  IC50: 200 nM
GCK/MAP4K2
  fold selectivity for MAP4K4 over GCK/MAP4K2: (50) fold
  IC50: 7940 nM
GLK/MAP4K3
  fold selectivity for MAP4K4 over GLK/MAP4K3: (199) fold
  IC50: 31600 nM
KHS/MAP4K5
  fold selectivity for MAP4K4 over KHS/MAP4K5: (199) fold
  IC50: 437 nM
ABL1
  fold selectivity for MAP4K4 over ABL1: (199) fold
  IC50: 31600 nM
Aurora B
  fold selectivity for MAP4K4 over Aurora B: (199) fold
  IC50: 31600 nM
FLT3
  fold selectivity for MAP4K4 over FLT3: (199) fold
  IC50: 31600 nM
GSK3β
  fold selectivity for MAP4K4 over GSK3β: (199) fold
  IC50: 31600 nM
MLK1/MAP3K9
  fold selectivity for MAP4K4 over MLK1/MAP3K9: (25) fold
  IC50: 3980 nM
MLK3/MAP3K11
  fold selectivity for MAP4K4 over MLK3/MAP3K11: (199) fold
  IC50: 31600 nM
VEGFR
  fold selectivity for MAP4K4 over VEGFR: (79) fold
  pIC50 VEGFR: 4.9

## O=c1[nH]cnc2c1c(-c1ccc(OCCCN3CCOCC3)cc1)cn2-c1ccccc1 [Ex-27]
[1]; [5]
  IC50: ≤ 100 nM
[1]; [6]
  IC50: 6.31 nM
MINK1/MAP4K6
  IC50: 6.31 nM
TNIK/MAP4K7
  IC50: 10 nM
GCK/MAP4K2
  fold selectivity for MAP4K4 over GCK/MAP4K2: (31) fold
  IC50: 200 nM
GLK/MAP4K3
  fold selectivity for MAP4K4 over GLK/MAP4K3: (251) fold
  IC50: 1580 nM
KHS/MAP4K5
  fold selectivity for MAP4K4 over KHS/MAP4K5: (6) fold
  IC50: 39.8 nM
ABL1
  fold selectivity for MAP4K4 over ABL1: (501) fold
  IC50: 3160 nM
Aurora B
  fold selectivity for MAP4K4 over Aurora B: (1584) fold
  IC50: 10000 nM
FLT3
  fold selectivity for MAP4K4 over FLT3: (1258) fold
  IC50: 7940 nM
GSK3β
  fold selectivity for MAP4K4 over GSK3β: (5011) fold
  IC50: 31600 nM
MLK1/MAP3K9
  fold selectivity for MAP4K4 over MLK1/MAP3K9: (13) fold
  IC50: 79.4 nM
VEGFR
  fold selectivity for MAP4K4 over VEGFR: (125) fold
  pIC50 VEGFR: 6.1

## O=c1[nH]cnc2c1c(-c1ccc(OCCO)cc1F)cn2-c1ccccc1 [Ex-56, 5-[2-Fluoro-4-(2-hydroxy-ethoxy)-phenyl]-7-phenyl-3,7-dihydro-pyrrolo[2,3-d]pyrimidin-4-one]
[1]; [5]
  IC50: ≤ 100 nM
[1]; [6]
  IC50: 5.01 nM
MINK1/MAP4K6
  IC50: 7.94 nM
TNIK/MAP4K7
  IC50: 20 nM
GCK/MAP4K2
  fold selectivity for MAP4K4 over GCK/MAP4K2: (79) fold
  IC50: 398 nM
GLK/MAP4K3
  fold selectivity for MAP4K4 over GLK/MAP4K3: (6309) fold
  IC50: 31600 nM
KHS/MAP4K5
  fold selectivity for MAP4K4 over KHS/MAP4K5: (199) fold
  IC50: 1000 nM
ABL1
  fold selectivity for MAP4K4 over ABL1: (398) fold
  IC50: 2000 nM
Aurora B
  fold selectivity for MAP4K4 over Aurora B: (1258) fold
  IC50: 6310 nM
FLT3
  fold selectivity for MAP4K4 over FLT3: (3162) fold
  IC50: 15800 nM
MLK1/MAP3K9
  fold selectivity for MAP4K4 over MLK1/MAP3K9: (39) fold
  IC50: 200 nM
MLK3/MAP3K11
  fold selectivity for MAP4K4 over MLK3/MAP3K11: (39) fold
  IC50: 200 nM
NUAK
  fold selectivity for MAP4K4 over NUAK: (501) fold
  pIC50 NUAK: 5.6
VEGFR
  fold selectivity for MAP4K4 over VEGFR: (6309) fold
  pIC50 VEGFR: 4.5

## O=C1NCCN1c1ccc(-c2cn(-c3ccccc3)c3nc[nH]c(=O)c23)cc1 [Ex-61]
[1]; [5]
  IC50: ≤ 100 nM
[1]; [6]
  IC50: 1.58 nM
MINK1/MAP4K6
  IC50: 7.94 nM
TNIK/MAP4K7
  IC50: 5.01 nM
GCK/MAP4K2
  fold selectivity for MAP4K4 over GCK/MAP4K2: (316) fold
  IC50: 316 nM
GLK/MAP4K3
  fold selectivity for MAP4K4 over GLK/MAP4K3: (31622) fold
  IC50: 31600 nM
KHS/MAP4K5
  fold selectivity for MAP4K4 over KHS/MAP4K5: (316) fold
  IC50: 1000 nM
ABL1
  fold selectivity for MAP4K4 over ABL1: (794) fold
  IC50: 794 nM
Aurora B
  fold selectivity for MAP4K4 over Aurora B: (31622) fold
  IC50: 31600 nM
FLT3
  fold selectivity for MAP4K4 over FLT3: (31622) fold
  IC50: 31600 nM
GSK3β
  fold selectivity for MAP4K4 over GSK3β: (31622) fold
  IC50: 31600 nM
MLK1/MAP3K9
  fold selectivity for MAP4K4 over MLK1/MAP3K9: (63) fold
  IC50: 63.1 nM
MLK3/MAP3K11
  fold selectivity for MAP4K4 over MLK3/MAP3K11: (63) fold
  IC50: 63.1 nM
NUAK
  fold selectivity for MAP4K4 over NUAK: (63) fold
  pIC50 NUAK: 7.2
VEGFR
  fold selectivity for MAP4K4 over VEGFR: (501) fold
  pIC50 VEGFR: 6.3

## Oc1ncnc2c1c(-c1ccccc1)cn2-c1ccccc1 [F1386-0303, 5,7-diphenyl-7H-pyrrolo[2,3-d]pyrimidin-4-ol, reference compound]
[1]
  pIC50 MAP4K4: 7.46
[1]; read-out: IC50 (MAP4K4)
  IC50: 34 nM
ABL1
  pIC50 ABL1: 4.52
Aurora B
  pIC50 Aurora B: 4.88
FLT3
  pIC50 FLT3: 5.66
GSK3β
  pIC50 GSK3β: 4.57
[2]
  reduction of human cardiac muscle cell death: 50%
[3]
  protection from H2O2 or menadione: virtually complete
[4]
  clearance and oral exposure in mice (in words): rapidly cleared and accumulates only to low levels
[4]; po, 50 mg/kg
  AUCinf: 2162
